Test results published in the NIST ThermoML archive (doi:10.1016/j.tca.2006.06.018).
± gives the expanded uncertainty stated by the source.

Legend:
[1] = Molar enthalpy of transition or fusion; details: DSC
[2] = DTA

SMILES | Molar enthalpy of transition or fusion ([1]; Crystal 1) [kcal/mol] | Molar enthalpy of transition or fusion ([1]; Crystal 2) [kcal/mol] | Molar enthalpy of transition or fusion ([1]; Crystal 3) [kcal/mol] | Triple point temperature ([2]; Crystal 1) [K] | Triple point temperature ([2]; Crystal 2) [K] | Triple point temperature ([2]; Crystal 3) [K] | Triple point temperature ([2]; Metastable crystal) [K]
CC[N+](C)(C)CCO.F[B-](F)(F)F | 1.23 ± 0.0598 | 0.28 ± 0.0382 | 0.731 ± 0.0478 | 426.8 ± 2.1 | 311.5 ± 0.5 | 252.8 ± 0.5 | 146 ± 1
CCCCOCn1cc[n+](COCCCC)c1.F[B-](F)(F)F [1,3-bis(butoxymethyl)-1H-imidazolium tetrafluoroborate] | 2.04 ± 0.0789 | 2.6 ± 0.0908 |  | 281.4 ± 2.1 | 267.4 ± 0.5 |  | 
CCCCCCCCCCOn1cc[n+](OCCCCCCCCCC)c1C.O=S(=O)([N-]S(=O)(=O)C(F)(F)F)C(F)(F)F | 19 ± 0.502 |  |  | 303.1 ± 2.1 |  |  | 
CCCCCCCCOCn1cc[n+](COCCCCCCCC)c1.O=S(=O)([N-]S(=O)(=O)C(F)(F)F)C(F)(F)F | 8.17 ± 0.229 |  |  | 287.7 ± 2.1 |  |  | 
CCCC[N+](C)(C)CCO.[Br-] [N-(2-hydroxyethyl)-N,N-dimethylbutanaminium bromide] | 3.16 ± 0.105 |  |  | 359.3 ± 2.1 |  |  | 187.3 ± 0.5
CC[N+](C)(C)CCO.N#C[N-]C#N [N-ethyl-2-hydroxyethyl-N,N-dimethylammonium dicyanamide] | 2.06 ± 0.0789 |  |  | 282.7 ± 2.1 |  |  | 168.4 ± 0.5
CC[N+](C)(C)CCO.F[P-](F)(F)(F)(F)F | 2.53 ± 0.0908 |  |  | 272 ± 2.1 |  |  | 
